SMILES strings stand for the structures. Activity calls are given as the source filed them. How the calls were made is not given here.

In the data set the test system is CCRIS mutagenicity, Ames/micronucleus/aberration tests. Put plainly: CCRIS mutagenicity studies.
Where [1] appears, read: Test System: AMES SALMONELLA TYPHIMURIUM, Strain/Indicator: TA98, Metabolic Activation: NONE, Method: STANDARD PLATE.
The mark [2] stands for this setting: Test System: AMES SALMONELLA TYPHIMURIUM, Strain/Indicator: TA100, Metabolic Activation: NONE, Method: STANDARD PLATE.
Setting [3] is: Test System: AMES SALMONELLA TYPHIMURIUM, Strain/Indicator: TA100, Metabolic Activation: RAT, LIVER, S-9, PHENOBARBITAL, Method: STANDARD PLATE.
Setting [4] is: Test System: AMES SALMONELLA TYPHIMURIUM, Strain/Indicator: TA98, Metabolic Activation: NONE, Method: PREINCUBATION
Setting [5] is: Test System: AMES SALMONELLA TYPHIMURIUM, Strain/Indicator: TA100, Metabolic Activation: NONE, Method: PREINCUBATION

Consider `Oc1ccc2c(c1)OCO2`, for which the mutagenic call runs as follows: (Test System: AMES SALMONELLA TYPHIMURIUM, Strain/Indicator: TA98, Metabolic Activation: HAMSTER, LIVER, S-9, AROCLOR 1254, Method: STANDARD PLATE) “inactive; negative”; under setting [1], “inactive; negative”; (Test System: AMES SALMONELLA TYPHIMURIUM, Strain/Indicator: TA98, Metabolic Activation: RAT, LIVER, S-9, AROCLOR 1254, Method: STANDARD PLATE) “inactive; negative”; (Test System: AMES SALMONELLA TYPHIMURIUM, Strain/Indicator: TA100, Metabolic Activation: HAMSTER, LIVER, S-9, AROCLOR 1254, Method: STANDARD PLATE) “inactive; negative”; under setting [2], “inactive; negative”; (Test System: AMES SALMONELLA TYPHIMURIUM, Strain/Indicator: TA100, Metabolic Activation: RAT, LIVER, S-9, AROCLOR 1254, Method: STANDARD PLATE) “inactive; negative”. In addition, the mutagenic call was “inactive; negative” (Test System: AMES SALMONELLA TYPHIMURIUM, Strain/Indicator: TA1535, Metabolic Activation: HAMSTER, LIVER, S-9, AROCLOR 1254, Method: STANDARD PLATE); “inactive; negative” (Test System: AMES SALMONELLA TYPHIMURIUM, Strain/Indicator: TA1535, Metabolic Activation: NONE, Method: STANDARD PLATE); “inactive; negative” (Test System: AMES SALMONELLA TYPHIMURIUM, Strain/Indicator: TA1535, Metabolic Activation: RAT, LIVER, S-9, AROCLOR 1254, Method: STANDARD PLATE); “inactive; negative” (Test System: AMES SALMONELLA TYPHIMURIUM, Strain/Indicator: TA1537, Metabolic Activation: HAMSTER, LIVER, S-9, AROCLOR 1254, Method: STANDARD PLATE); “inactive; negative” (Test System: AMES SALMONELLA TYPHIMURIUM, Strain/Indicator: TA1537, Metabolic Activation: NONE, Method: STANDARD PLATE); “inactive; negative” (Test System: AMES SALMONELLA TYPHIMURIUM, Strain/Indicator: TA1537, Metabolic Activation: RAT, LIVER, S-9, AROCLOR 1254, Method: STANDARD PLATE). Further, the mutagenic call is “inactive; negative” (Test System: AMES SALMONELLA TYPHIMURIUM, Strain/Indicator: TA1538, Metabolic Activation: HAMSTER, LIVER, S-9, AROCLOR 1254, Method: STANDARD PLATE); “inactive; negative” (Test System: AMES SALMONELLA TYPHIMURIUM, Strain/Indicator: TA1538, Metabolic Activation: NONE, Method: STANDARD PLATE); “inactive; negative” (Test System: AMES SALMONELLA TYPHIMURIUM, Strain/Indicator: TA1538, Metabolic Activation: RAT, LIVER, S-9, AROCLOR 1254, Method: STANDARD PLATE); “active; positive” (Test System: MOUSE LYMPHOMA, Strain/Indicator: L5178Y (TK+/TK-), Metabolic Activation: NONE, Method: SUSPENSION/PLATE); “active; positive” (Test System: MOUSE LYMPHOMA, Strain/Indicator: L5178Y (TK+/TK-), Metabolic Activation: RAT, LIVER, S-9, AROCLOR 1254, Method: SUSPENSION/PLATE); “active; positive” (Test System: Mouse lymphoma, Strain/Indicator: L5178Y (tk+/tk-), Metabolic Activation: None, Method: Suspension/plate). Moreover, the mutagenic call (Test System: Mouse lymphoma, Strain/Indicator: L5178Y (tk+/tk-), Metabolic Activation: Rat, Liver, S-9, Aroclor 1254, Method: Suspension/plate) was “active; positive”.
For `O=C1C=CC(=O)C1(Cl)Cl`, the mutagenic call under setting [2] was “active; positive”.
For the molecule `CCc1c2ccccc2cc2ccc3ccccc3c12`, the mutagenic call runs as follows: (Test System: AMES SALMONELLA TYPHIMURIUM, Strain/Indicator: TA98, Method: STANDARD PLATE) “inactive; negative”; under setting [3], “inactive; negative”; (Test System: AMES SALMONELLA TYPHIMURIUM, Strain/Indicator: TA100, Method: STANDARD PLATE) “inactive; negative”.
Take `COc1ccc2cc3c4c(cc(OC)c(OC)c4c2c1)CCN3C`: where the note is “Test System: AMES SALMONELLA TYPHIMURIUM, Strain/Indicator: TA100, Metabolic Activation: RAT, LIVER, S-9, PHENOBARBITAL AND BETA-NAPHTHOFLAVONE, Method: PREINCUBATION”, the mutagenic call is “inactive; negative”.
Regarding `CCOC(=O)OCC`, the mutagenic call (Test System: AMES SALMONELLA TYPHIMURIUM, Strain/Indicator: TA98, Metabolic Activation: HAMSTER, LIVER, S-9, AROCLOR 1254 (10%), Method: PREINCUBATION) was “inactive; negative”; the mutagenic call under setting [4] is “inactive; negative”; the mutagenic call (Test System: AMES SALMONELLA TYPHIMURIUM, Strain/Indicator: TA98, Metabolic Activation: RAT, LIVER, S-9, AROCLOR 1254 (10%), Method: PREINCUBATION) was “inactive; negative”; the mutagenic call (Test System: AMES SALMONELLA TYPHIMURIUM, Strain/Indicator: TA100, Metabolic Activation: HAMSTER, LIVER, S-9, AROCLOR 1254 (10%), Method: PREINCUBATION) was “inactive; negative”; the mutagenic call under setting [5] is “inactive; negative”; the mutagenic call (Test System: AMES SALMONELLA TYPHIMURIUM, Strain/Indicator: TA100, Metabolic Activation: RAT, LIVER, S-9, AROCLOR 1254 (10%), Method: PREINCUBATION) was “inactive; negative”. In addition, the mutagenic call was “inactive; negative” (Test System: AMES SALMONELLA TYPHIMURIUM, Strain/Indicator: TA1535, Metabolic Activation: HAMSTER, LIVER, S-9, AROCLOR 1254 (10%), Method: PREINCUBATION); “inactive; negative” (Test System: AMES SALMONELLA TYPHIMURIUM, Strain/Indicator: TA1535, Metabolic Activation: NONE, Method: PREINCUBATION); “inactive; negative” (Test System: AMES SALMONELLA TYPHIMURIUM, Strain/Indicator: TA1535, Metabolic Activation: RAT, LIVER, S-9, AROCLOR 1254 (10%), Method: PREINCUBATION); “inactive; negative” (Test System: AMES SALMONELLA TYPHIMURIUM, Strain/Indicator: TA1537, Metabolic Activation: HAMSTER, LIVER, S-9, AROCLOR 1254 (10%), Method: PREINCUBATION); “inactive; negative” (Test System: AMES SALMONELLA TYPHIMURIUM, Strain/Indicator: TA1537, Metabolic Activation: NONE, Method: PREINCUBATION); “inactive; negative” (Test System: AMES SALMONELLA TYPHIMURIUM, Strain/Indicator: TA1537, Metabolic Activation: RAT, LIVER, S-9, AROCLOR 1254 (10%), Method: PREINCUBATION).
In the case of `O=CC1C=COC=C1`, the mutagenic call is “inactive; negative” under setting [1]; “inactive; negative” (Test System: AMES SALMONELLA TYPHIMURIUM, Strain/Indicator: TA98, Metabolic Activation: RAT, LIVER, S-9, PHENOBARBITAL, Method: STANDARD PLATE); “inactive; negative” under setting [2]; “inactive; negative” under setting [3]; “inactive; negative” (Test System: AMES SALMONELLA TYPHIMURIUM, Strain/Indicator: TM677/8-AZAGUANINE, Metabolic Activation: NONE, Method: STANDARD PLATE).
As to `N#C[S-].N#C[S-].N#C[S-].N#C[S-].N#C[S-].N#C[S-].[K+].[K+].[Pt+4]`, the mutagenic call was “inactive; negative” under setting [4]; “inactive; negative” (Test System: AMES SALMONELLA TYPHIMURIUM, Strain/Indicator: TA98, Metabolic Activation: RAT, LIVER, S-9, AROCLOR 1254, Method: PREINCUBATION); “inactive; negative” under setting [5]; “inactive; negative” (Test System: AMES SALMONELLA TYPHIMURIUM, Strain/Indicator: TA100, Metabolic Activation: RAT, LIVER, S-9, AROCLOR 1254, Method: PREINCUBATION).
`N[C@@H](CSC(Cl)=C(Cl)Cl)C(=O)O`: the mutagenic call by setting is: under setting [5], “active; positive”; under setting [2], “active; positive”; (Test System: AMES SALMONELLA TYPHIMURIUM, Strain/Indicator: TA100, Metabolic Activation: RAT, KIDNEY, S-9, AROCLOR 1254, Method: STANDARD PLATE) “active; positive”; (Test System: AMES SALMONELLA TYPHIMURIUM, Strain/Indicator: TA2638, Metabolic Activation: NONE, Method: PREINCUBATION) “inactive; negative”.
On to `ClCCC(Br)CBr` (stereo not drawn), for which the mutagenic call is “inactive; negative” (Test System: AMES SALMONELLA TYPHIMURIUM, Strain/Indicator: TA100, Metabolic Activation: RAT, LIVER, MICROSOMES, PHENOBARBITAL, Method: PREINCUBATION) and “inactive; negative” (Test System: AMES SALMONELLA TYPHIMURIUM, Strain/Indicator: TA100, Metabolic Activation: RAT, LIVER, MICROSOMES, Method: PREINCUBATION).
As to `O=P1(Oc2ccccc2)OCc2ccccc2O1` (stereo not drawn), the mutagenic call under setting [2] is “active; positive” and the mutagenic call (Test System: AMES SALMONELLA TYPHIMURIUM, Strain/Indicator: TA100, Metabolic Activation: RAT, LIVER, MICROSOMES, Method: STANDARD PLATE) is “active; positive”.

These data come from PubChem BioAssay AID1259407 (Chemical Carcinogenesis Research Information System (CCRIS), 2018).
